Holding throughout (assay): CA Activity Assay
Common to all, as to conditions: pH 7.4; 25 °C

One assay has as its target Carbonic anhydrase 1 (Homo sapiens, UniProt P00915). Here is the method: (§1) The enzymatic reaction, in a total volume of 3.0 mL, contained 1.4 mL 0.05M Tris-SO4 buffer (pH 7.4), 1mL 3 mM 4-nitrophenylacetate, 0.5 mL H2O and 0.1mL enzyme solution. A reference measurement was obtained by preparing the same cuvette without enzyme solution. The inhibitory effects of the sulphonamide derivatives were examined. All compounds were tested in triplicate at each concentration used. Different concentrations of the compounds were used.

Another assay has as its target Carbonic anhydrase 6 (Homo sapiens, UniProt P23280). Here is the method:
as §1

The target in another assay is Carbonic anhydrase 2 (Homo sapiens, UniProt P00918). Here is the method: as §1

Sequence of Carbonic anhydrase 1 (P00915 whole entry): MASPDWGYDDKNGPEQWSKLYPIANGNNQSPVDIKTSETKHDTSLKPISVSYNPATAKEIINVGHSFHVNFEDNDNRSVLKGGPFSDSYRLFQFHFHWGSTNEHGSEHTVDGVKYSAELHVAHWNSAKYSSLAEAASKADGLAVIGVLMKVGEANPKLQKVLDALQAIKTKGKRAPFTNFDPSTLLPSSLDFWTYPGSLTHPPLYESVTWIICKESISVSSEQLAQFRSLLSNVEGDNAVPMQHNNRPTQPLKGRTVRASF
Sequence of Carbonic anhydrase 6 (P23280 whole entry): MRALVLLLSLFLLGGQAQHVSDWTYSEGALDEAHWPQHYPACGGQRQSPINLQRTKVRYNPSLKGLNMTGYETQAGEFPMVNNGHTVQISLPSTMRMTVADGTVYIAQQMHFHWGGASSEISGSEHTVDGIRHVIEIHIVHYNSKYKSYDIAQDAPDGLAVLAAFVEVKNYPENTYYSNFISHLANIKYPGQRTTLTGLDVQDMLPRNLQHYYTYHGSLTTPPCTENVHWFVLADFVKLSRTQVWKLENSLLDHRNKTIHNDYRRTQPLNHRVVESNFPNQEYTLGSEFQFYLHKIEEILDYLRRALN

The term Ki denotes the dissociation constant of the complex between target and ligand, obtained from inhibition or displacement. The low end stands for tighter binding, the high end for weaker binding. For `Cc1ccc(S(N)(=O)=O)cc1`, the Ki at Carbonic anhydrase 1 worked out at 118 µM; on Carbonic anhydrase 6, 21.2 µM.
Turning to `NS(=O)(=O)c1ccccc1`, the Ki at Carbonic anhydrase 6 is 4.11 µM. This counts as single-digit micromolar.
Turning to `Nc1ccc(S(N)(=O)=O)cc1` [aromatic sulfonamide compound 5], at Carbonic anhydrase 6, the Ki came to 1.21 µM.
With `NCc1ccc(S(N)(=O)=O)cc1` [aromatic sulfonamide compound 6], on Carbonic anhydrase 6, the Ki turned out to be 1.01 µM. The Ki values of the last two compounds are within 1.5-fold of each other.
On to `CCOC1Oc2ccccc2C(=O)/C1=C\Nc1ccc(S(N)(=O)=O)cc1` (centres undefined) [hCA inhibitor, 1], for which the Ki amounted to 13.7 µM on Carbonic anhydrase 1, 0.228 µM on Carbonic anhydrase 2 and 0.943 µM at Carbonic anhydrase 6.
On to `CCOC1Oc2c(Br)cccc2C(=O)/C1=C\Nc1ccc(S(N)(=O)=O)cc1` (centres undefined) [hCA inhibitor, 3], for which the Ki is 48.1 µM at Carbonic anhydrase 1, 1.13 µM at Carbonic anhydrase 2 and 2.24 µM on Carbonic anhydrase 6.
`CCOC1Oc2c(Br)cc(Br)cc2C(=O)/C1=C\Nc1ccc(S(N)(=O)=O)cc1` (centres undefined) [hCA inhibitor, 4]: the Ki on Carbonic anhydrase 1 came to 71.2 µM; on Carbonic anhydrase 2, 1.86 µM; on Carbonic anhydrase 6, 4.28 µM.

(Values after BindingDB's records for doi:10.3109/14756366.2011.614607 (Ondokuz Mayis University, 2012).)
